The results in this text go back to US5252478A, “Thermostable mutants of neutral protease and means for their preparation” (Eniricerche S.p.A., priority 1990, dated 1993).

Assay in all cases: Kinetic parameters on synthetic peptide substrates (HPLC of hydrolysis products)
Format in all cases: biochemical

The target of assay [1] is T1, B.subtilis neutral protease double mutant 147/189 (Gly 147 → Ala, Gly 189 → Ala) (Bacillus subtilis, UniProt P68736, G369A/G406A).
T1 construct: made in house; host or cells: B. subtilis SMS 108 carrying pSM 376 (B. subtilis SMS 262)
The following applies: 147/189 mutant; 37° C., 25 mM Tris-HCl, pH 7.0, 2.5 mM calcium acetate. As to the method:
(§1) The kinetic parameters Km and Kcat of wild-type neutral protease and of the three mutants were determined on Z-Phe-Leu-Ala, Z-Ala-Leu-Ala, Z-Gly-Leu-Ala and Z-Val-Leu-Ala synthetic peptide substrates (Bachem, Bubendorf, CH).
(§2) The hydrolysis reactions were carried out at 37° C. in 0.6 ml of a solution containing 25 mM Tris-HCl, pH 7.0, and 2.5 mM calcium acetate, with the use of different concentrations of the substrate (from 0.2 to 20.0 mM) and of the enzyme (from 0.04 to 5 ug/ml).
(§3) 100 μl portions were withdrawn from the reaction mixtures at various time intervals, and 100 μl of a solution of H2 O:CH3 CN:H3 PO4 in a volumetric ratio of 64:34:1 were added and the mixture centrifuged at 14,000 rpm for 5 minutes.
(§4) 20 μl of the supernatant liquid thus obtained were then loaded into a VYDAC® 218 TP S415 HPLC column (4.6×150 mm, 10 μm particles) and the hydrolysis products (Z-Phe, Z-Ala, Z-Val and Z-Gly) were separated by isocratic elution at a flow rate of 1.5 ml/minute with the use of solutions A (0.05% H3 PO4, v/v) and B (H2 O:CH3 CN:H3 PO4, 4.95:95.0:0.05 v/v) in ratios which varied according to the substrate used.
(§5) The reaction products were measured as their absorbance at 220 nm and quantised by the integration of the elution peaks with the use of the System Gold program (Beckman).
(§6) Initial velocities (vi) and maximum velocities (Vmax) Km and Kcat were then found for each of the substrates with the use of the Michaelis-Manten equation [formula]

Assay [2] deals with T2, B.subtilis neutral protease mutant 189 (Gly 189 → Ala) (Bacillus subtilis, UniProt P68736, G406A).
T2 construct: made in house; host or cells: B. subtilis SMS 108 carrying pSM 375 (printed pSM 75; B. subtilis SMS 261)
The following applies: 189 mutant; 37° C., 25 mM Tris-HCl, pH 7.0, 2.5 mM calcium acetate. As to the method:
as §1, §2, §3, §4, §5, §6

Assay [3] addresses T3, B.subtilis neutral protease mutant 147 (Gly 147 → Ala) (Bacillus subtilis, UniProt P68736, G369A).
T3 construct: made in house; host or cells: B. subtilis SMS 108 carrying pSM 374 (B. subtilis SMS 263)
The following applies: 147 mutant; 37° C., 25 mM Tris-HCl, pH 7.0, 2.5 mM calcium acetate. On the procedure:
as §1, §2, §3, §4, §5, §6

Assay [4] concerns the target T4, B.subtilis neutral protease, wild type (PN w.t.) (Bacillus subtilis, UniProt P68736).
T4 construct: made in house; host or cells: B. subtilis SMS 108 carrying pSM 127 (NRRL B-15900)
T4 sequence (P68736 222-521): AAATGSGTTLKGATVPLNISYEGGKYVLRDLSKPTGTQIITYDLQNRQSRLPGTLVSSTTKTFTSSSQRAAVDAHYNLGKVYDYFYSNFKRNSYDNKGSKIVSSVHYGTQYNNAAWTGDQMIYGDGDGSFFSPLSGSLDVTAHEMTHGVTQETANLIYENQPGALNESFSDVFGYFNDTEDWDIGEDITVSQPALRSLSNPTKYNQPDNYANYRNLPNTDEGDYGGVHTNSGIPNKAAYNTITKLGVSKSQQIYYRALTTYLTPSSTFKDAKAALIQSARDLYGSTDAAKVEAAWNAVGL
More on the design: unit not given beside the values. The following applies: 37° C., 25 mM Tris-HCl, pH 7.0, 2.5 mM calcium acetate. As to the method:
as §1, §2, §3, §4, §5, §6

Residues, ends and D or L forms follow the SMILES beside them. *: point of attachment. Cbz = O=C(OCc1ccccc1)*

T3 sequence (P68736 222-521 G369A): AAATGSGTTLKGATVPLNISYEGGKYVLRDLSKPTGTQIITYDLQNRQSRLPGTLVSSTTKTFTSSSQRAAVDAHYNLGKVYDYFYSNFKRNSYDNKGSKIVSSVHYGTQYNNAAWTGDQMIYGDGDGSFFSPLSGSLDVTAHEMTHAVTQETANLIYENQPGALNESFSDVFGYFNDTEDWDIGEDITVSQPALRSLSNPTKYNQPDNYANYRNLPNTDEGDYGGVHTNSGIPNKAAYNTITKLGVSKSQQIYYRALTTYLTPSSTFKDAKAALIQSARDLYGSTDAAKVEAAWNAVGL
T1 sequence (P68736 222-521 G369A/G406A): as the sequence (P68736 222-521 G369A) above, with G185A counted along it
T2 sequence (P68736 222-521 G406A): as the sequence (P68736 222-521 G369A) above, with A148G, G185A counted along it

Take `CC(C)C[C@H](NC(=O)[C@H](C)NC(=O)OCc1ccccc1)C(=O)N[C@@H](C)C(=O)O` [Z--Ala--Leu--Ala, Z-Ala-Leu-Ala] (Cbz-Ala-Leu-Ala-OH): the Kcat in assay [1] is on record as 1329; in assay [2], 2694; in assay [3] it was approximately 3500; in assay [4], 3005. The values for the Michaelis-Menten constant (Km) in assay [1] and in assay [2] were 8.72 mM and 1.53 mM, respectively.
For the compound `CC(C)C[C@H](NC(=O)CNC(=O)OCc1ccccc1)C(=O)N[C@@H](C)C(=O)O` [Z--Gly--Leu--Ala, Z-Gly-Leu-Ala] (Cbz-Gly-Leu-Ala-OH), the Kcat is given as 186.4 in assay [1], 1847 in assay [2], 105.8 in assay [3] and 1150 in assay [4]. Further, the figures for the Michaelis-Menten constant (Km) in assay [1], in assay [2] and in assay [3] were 4.39 mM, 2.38 mM and 35.3 mM, respectively.
Turning to `CC(C)C[C@H](NC(=O)[C@H](Cc1ccccc1)NC(=O)OCc1ccccc1)C(=O)N[C@@H](C)C(=O)O` [Z--Phe--Leu--Ala, Z-Phe-Leu-Ala] (Cbz-Phe-Leu-Ala-OH), the Kcat in assay [1] is given as 1038; in assay [2], 2139; in assay [3], 1933; in assay [4], 1986. Further, the Km in assay [1] is 0.95 mM; in assay [2] it was 2.53 mM; in assay [3], 9.36 mM.
For `CC(C)C[C@H](NC(=O)[C@@H](NC(=O)OCc1ccccc1)C(C)C)C(=O)N[C@@H](C)C(=O)O` [Z--Val--Leu--Ala, Z-Val-Leu-Ala] (Cbz-Val-Leu-Ala-OH), the Kcat is recorded as 7.61 in assay [1], 13.12 in assay [2], 3.76 in assay [3] and 6.12 in assay [4]. Also, the Km in assay [1] was 6.97 mM; in assay [2], 0.96 mM; in assay [3], 24 mM.
